The values below come from patent publication US11279681B2, “3-alkyl bicyclic [4,5,0] hydroxamic acids as HDAC inhibitors” (Valo Health, Inc., priority 2015, dated 2022).

Structures are written as SMILES. pIC50: −log10 of the molar value.

This experiment addresses T1, HDAC6 (Homo sapiens, UniProt Q9UBN7).
T1 sequence (Q9UBN7 1-1215): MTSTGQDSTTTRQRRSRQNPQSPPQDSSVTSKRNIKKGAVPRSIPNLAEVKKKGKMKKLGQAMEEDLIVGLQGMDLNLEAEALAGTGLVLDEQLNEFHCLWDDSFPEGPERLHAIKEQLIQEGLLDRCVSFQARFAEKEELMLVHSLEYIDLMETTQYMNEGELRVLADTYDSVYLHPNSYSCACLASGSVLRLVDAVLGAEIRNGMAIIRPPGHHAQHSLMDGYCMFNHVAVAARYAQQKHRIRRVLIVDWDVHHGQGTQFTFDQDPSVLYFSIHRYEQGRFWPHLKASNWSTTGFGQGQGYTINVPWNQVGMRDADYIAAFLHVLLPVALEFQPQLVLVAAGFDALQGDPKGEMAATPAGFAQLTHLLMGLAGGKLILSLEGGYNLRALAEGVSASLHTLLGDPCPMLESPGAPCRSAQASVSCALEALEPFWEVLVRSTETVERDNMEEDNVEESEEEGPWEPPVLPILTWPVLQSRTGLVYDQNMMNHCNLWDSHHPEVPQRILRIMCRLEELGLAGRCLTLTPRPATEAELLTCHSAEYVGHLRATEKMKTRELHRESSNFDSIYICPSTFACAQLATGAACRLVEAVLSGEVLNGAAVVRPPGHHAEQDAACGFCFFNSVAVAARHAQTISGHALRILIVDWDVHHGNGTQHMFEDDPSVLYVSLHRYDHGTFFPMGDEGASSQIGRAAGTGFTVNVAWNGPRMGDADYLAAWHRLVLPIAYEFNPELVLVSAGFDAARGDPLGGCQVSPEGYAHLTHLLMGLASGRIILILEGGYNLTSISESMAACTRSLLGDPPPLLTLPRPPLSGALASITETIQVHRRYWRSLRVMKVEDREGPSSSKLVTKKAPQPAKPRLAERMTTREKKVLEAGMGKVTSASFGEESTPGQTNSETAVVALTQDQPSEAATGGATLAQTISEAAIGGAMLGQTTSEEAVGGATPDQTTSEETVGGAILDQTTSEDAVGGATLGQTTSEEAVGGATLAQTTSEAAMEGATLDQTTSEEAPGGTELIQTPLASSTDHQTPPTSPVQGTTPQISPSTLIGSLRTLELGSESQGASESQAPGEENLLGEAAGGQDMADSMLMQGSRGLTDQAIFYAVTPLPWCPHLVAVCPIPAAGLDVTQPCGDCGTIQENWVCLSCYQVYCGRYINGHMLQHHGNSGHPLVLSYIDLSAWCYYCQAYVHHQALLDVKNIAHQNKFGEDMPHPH
As to the kind of experiment: In vitro histone deacetylase assay: enzymatic HDAC6 electrophoretic mobility shift assay. Type of experiment: biochemical. The conditions noted are these: full length human recombinant HDAC6, 1 nM enzyme, 2 μM peptide substrate RHKK(Ac)-NH2, 25° C.; read-out: Inhibitory Concentration (IC50) Values for Representative Compounds against HDAC6, Activity Range.
For the molecule `C[C@H]1COc2cc(C(=O)NO)ccc2CN1c1ccc(OC(F)(F)F)cc1` [(S)-N-hydroxy-3-methyl-4-(4-(trifluoromethoxy)phenyl)-2,3,4,5-tetrahydrobenzo[f][1,4]oxazepine-8-carboxamide], the pIC50 is 6.30 to 7.00.
Consider `O=C1CN(Cc2ccc(Cl)cc2)Cc2cc(C(=O)NO)ccc2N1`, for which the pIC50 was no less than 7.00.
In the case of `C[C@H]1COc2cc(C(=O)NO)ccc2CN1C(=O)Nc1ccncc1` [(S)-N8-hydroxy-3-methyl-N4-(pyridin-4-yl)-2,3-dihydrobenzo[f][1,4]oxazepine-4,8(5H)-dicarboxamide], the pIC50 was no less than 7.00.
The result for `COC(=O)N1Cc2ccc(C(=O)NO)cc2OC[C@@H]1C` [methyl(S)-8-(hydroxycarbamoyl)-3-methyl-2,3-dihydrobenzo[f][1,4]oxazepine-4(5H)-carboxylate] reads no less than 7.00; that for `C[C@H]1COc2cc(C(=O)NO)ccc2CN1CCCN1CCOCC1` [(S)-N-hydroxy-3-methyl-4-(3-morpholinopropyl)-2,3,4,5-tetrahydrobenzo[f][1,4]oxazepine-8-carboxamide], 6.30 to 7.00; that for `COc1ccc(CN2Cc3ccc(C(=O)NO)cc3OC[C@H]2C)cc1`, no less than 7.00.
The figure for `CC[C@H]1COc2cc(C(=O)NO)ccc2CN1c1ccccc1` [(S)-3-ethyl-N-hydroxy-4-phenyl-2,3,4,5-tetrahydrobenzo[f][1,4]oxazepine-8-carboxamide] is no less than 7.00.
As for `O=C(NO)c1ccc2c(c1)OCCN(c1ccncc1)C2` [N-hydroxy-4-(pyridin-4-yl)-2,3,4,5-tetrahydrobenzo[f][1,4]oxazepine-8-carboxamide], the pIC50 is less than 6.30.
The figure for `O=C1CN(CC2CCOC2)Cc2cc(C(=O)NO)ccc2N1` (centres unmarked) is less than 6.30; for `COc1ccc(NC(=O)N2Cc3ccc(C(=O)NO)cc3OC[C@@H]2C(C)C)cc1` it is no less than 7.00.
The figure for `COC[C@@H]1COc2cc(C(=O)NO)ccc2CN1c1ccccc1` [(R)-N-hydroxy-3-(methoxymethyl)-4-phenyl-2,3,4,5-tetrahydrobenzo[f][1,4]oxazepine-8-carboxamide] is 6.30 to 7.00; for `O=C(NO)c1ccc2c(c1)OCCN(c1nc3ccccc3o1)C2` it is no less than 7.00.
For the molecule `COc1ccc(NC(=O)N2CCOc3cc(C(=O)NO)ccc3C2)cc1`, the pIC50 is 6.30 to 7.00.
The result for `COc1ccc(OC(=O)N2CCOc3cc(C(=O)NO)ccc3C2)cc1` reads no less than 7.00; that for `C[C@H]1COc2cc(C(=O)NO)ccc2CN1C(=O)OC1CCCCC1` [cyclohexyl(S)-8-(hydroxycarbamoyl)-3-methyl-2,3-dihydrobenzo[f][1,4]oxazepine-4(5H)-carboxylate], no less than 7.00; that for `CC(C)[C@H]1COc2cc(C(=O)NO)ccc2CN1c1ccccc1`, no less than 7.00.
`C[C@H]1COc2cc(C(=O)NO)ccc2CN1C(=O)N1CCOc2ccccc21` [(S)-4-(3,4-dihydro-2H-benzo[b][1,4]oxazine-4-carbonyl)-N-hydroxy-3-methyl-2,3,4,5-tetrahydrobenzo[f][1,4]oxazepine-8-carboxamide]: the pIC50 was no less than 7.00.
The result for `Cc1ccc(N2CCOc3cc(C(=O)NO)ccc3C2)cc1` [N-hydroxy-4-(p-tolyl)-2,3,4,5-tetrahydrobenzo[f][1,4]oxazepine-8-carboxamide] reads 6.30 to 7.00; that for `O=C(NO)c1ccc2c(c1)OCCN(S(=O)(=O)N1CCCCC1)C2`, no less than 7.00; that for `C[C@H]1COc2cc(C(=O)NO)ccc2CN1C(=O)N1Cc2ccccc2C1` [(S)-N-hydroxy-4-(isoindoline-2-carbonyl)-3-methyl-2,3,4,5-tetrahydrobenzo[f][1,4]oxazepine-8-carboxamide], no less than 7.00.
Turning to `C[C@H]1COc2cc(C(=O)NO)ccc2CN1C(=O)N1CCN(C)CC1` [(S)-N-hydroxy-3-methyl-4-(4-methylpiperazine-1-carbonyl)-2,3,4,5-tetrahydrobenzo[f][1,4]oxazepine-8-carboxamide], the pIC50 is 6.30 to 7.00.
The result for `COc1ccc(CN2CCOc3ccc(C(=O)NO)cc3C2)cn1` reads less than 6.30.
The figure for `O=C1CN(CC2CC2)Cc2cc(C(=O)NO)ccc2N1` is 6.30 to 7.00.
